Data reported in US9120787B2, “HIV replication inhibitors” (priority 2011, dated 2015).
pIC50: −log10 of the molar value.

Experiments:
HIV-1Ba-L [1] = assay: Inhibition of virus replication in MAGI-CCR5 cells (β-galactosidase reporter); assay type: cell-based; settings: HIV-1Ba-L in MAGI-CCR5 cells; for pIC50: 48 hours, β-galactosidase reporter expression, read-out: IC50
Description: (§1) The anti-viral activity of dihydropyrimidines was shown by inhibition of virus replication in MAGI-CCR5 cells. MAGI-CCR5 cells are derived from HeLa-CD4-LTR-β-galactosidase cells. The cells have been engineered to express high levels of CD4 and CCR5 and contain one copy of the HIV-1 LTR promoter driving expression of the β-galactosidase gene upon HIV-1 Tat transactivation. On the day preceding the assay, the cells were plated at 1.0×10^4 cells per well and maintained at 37° C. and 5% CO2 in a humidified incubator. Total cell count and viability was visually assessed using a hemacytometer and trypan blue exclusion.
Compounds were evaluated at six concentrations (triplicate wells/concentration). On the day of assay setup, compound dilutions were prepared at two-times (2×) the final concentrations. Media was decanted and wells were replenished with 50 μl of 2× compounds, followed by the addition of 50 μl of diluted virus. Identical uninfected assays were prepared for parallel cytotoxicity testing.
Evaluation of Dihydropyrimidines vs. HIV-1Ba-L in MAGI-CCR5 Cells

[2] = Cytotoxicity by MTS staining in uninfected MAGI-CCR5 cells; assay type: cell-based; settings: human, read-out: TC50
Description: as §1, with “exclusion. Compounds were evaluated at six concentrations (triplicate wells/concentration). On the day of assay setup, compound dilutions were prepared at two-times (2×) the final concentrations. Media was decanted and wells were replenished with 50 μl of 2× compounds, followed by the addition of 50 μl of diluted virus. Identical uninfected assays were prepared for parallel cytotoxicity testing.” for “exclusion.”

HIV-1Ba-L [3] = assay: HIV-1Ba-L replication in PBMCs (supernatant RT end-point); settings: HIV-1Ba-L in PBMCs, seven days, RT end-point
Description: Evaluation of Dihydropyrimidines vs. HIV-1Ba-L in Peripheral Blood Mononuclear Cells (PBMCs)
Cultures of pooled phytohemagglutinin stimulated peripheral blood mononuclear cells (PBMC) were seeded into a 96-well plate at plating density of 5×10^4 cells/well. Compounds were serially diluted into media in ½-log increments using a high test of […] and […] of each concentration (nine total concentrations). Cells were infected with HIV strains HIV-1Ba-L and NL4-3 at an MOI=0.1. The PBMCs were cultured for seven days in an humidified incubator maintained at 37° C., 5% CO2 atmosphere. At the assay end-point, the supernatant was collected and analyzed for reverse transcriptase activity. For the RT assay, tritiated thymidine triphosphate (3H-TTP, 80 Ci/mmol) was diluted 1:1 dH2O:Ethanol at 1 mCi/ml. Poly rA:oligo dT template:primer was prepared as a stock solution by combining 150 μl poly rA (20 mg/ml) with 0.5 mL oligo dT (20 units/ml) and 5.35 ml sterile dH2O followed by aliquoting (1.0 ml) and storage at −20° C. The RT reaction buffer contained of 125 ml 1.0 M EGTA, 125 ml dH2O, 125 ml 20% Triton X100, 50 ml 1.0 M Tris (pH 7.4), 50 ml 1.0 M DTT, and 40 ml 1.0 M MgCl2. The final reaction mixture was prepared by combining 1 part 3H-TTP, 4 parts dH2O, 2.5 parts poly rA:oligo dT stock and 2.5 parts reaction buffer. To each well, ten microliters of the reaction mixture and 15 μl of virus containing supernatant were added. The plates were incubated at 37° C. for 60 minutes. Following incubation, the reaction volume was spotted onto DE81 filter-mats, washed 5 times for 5 minutes each in a 5% sodium phosphate buffer or 2×SSC. […] were washed 2 times for 1 minute each in distilled water, 2 times for 1 minute each in 70% ethanol, and then dried. Incorporated radioactivity (counts per minute, CPM) was quantified using standard liquid scintillation techniques.

| Molecule | TI (TC50/IC50) (HIV-1Ba-L [1]) | pIC50 (HIV-1Ba-L [1]; Human immunodeficiency virus 1) | CC50 at 48 h [2] [µM] | pIC50 (HIV-1Ba-L [1]) | pIC50 (HIV-1Ba-L [3]) |
| --- | --- | --- | --- | --- | --- |
| CC1=C(c2nc(-c3ccc(C)cc3)cs2)C(c2cccc(O)c2)NC(=O)N1 (centres unmarked) [Example 73] | D (D < 10.0) | 4.00 to 5.30 | 50 to 100 |  |  |
| CC1=C(c2nc(-c3ccc(C#N)cc3)cs2)C(c2cccnc2)NC(=O)N1 (centres unmarked) [Example 8] | C (C < 50.0 to 10.0) | 5.30 to 6.00 | ≥ 100 |  |  |
| CC1=C(c2nc(-c3ccc(C#N)cc3)cs2)C(c2nccn2C)NC(=O)N1 (centres unmarked) [Example 16] | D (D < 10.0) | < 4.00 | ≥ 100 |  |  |
| CC1=C(c2nc(-c3ccc(C#N)cc3)cs2)C(c2ccc(Cl)c(OC(F)(F)F)c2)NC(=O)N1 (centres unmarked) [Example 61] | D (D < 10.0) | 4.00 to 5.30 | ≥ 100 |  |  |
| Maraviroc [reference compound] |  |  |  | 9.22 | 8.05 |
| CC1=C(c2nc(-c3ccc(C#N)cc3)cs2)C(c2ccc(F)cc2)NC(=O)N1 (centres unmarked) [Example 49] | C (C < 50.0 to 10.0) | 5.30 to 6.00 | ≥ 100 |  |  |
| CC1=C(c2nc(-c3ccc(C#N)cc3C)cs2)C(c2cccnc2F)NC(=O)N1 (centres unmarked) [Example 82] | A (A = TI (TC50/IC50) ≧ 100.0) | > 6.00 | 50 to 100 |  |  |
| CC1=C(c2nc(-c3cccc(C#N)c3)cs2)C(c2ccc(O)cc2)NC(=O)N1 (centres unmarked) [Example 67] | D (D < 10.0) | 4.00 to 5.30 | 50 to 100 |  |  |
| CC1=C(c2nc(-c3ccc([N+](=O)[O-])cc3)cs2)C(c2cccc(O)c2)NC(=O)N1 (centres unmarked) [Example 76] | A (A = TI (TC50/IC50) ≧ 100.0) | > 6.00 | ≥ 100 |  |  |
| CC1=C(c2nc(-c3ccc(C#N)cc3)cs2)C(c2ccc(OCc3ccccc3)cc2)NC(=O)N1 (centres unmarked) [Example 52] | C (C < 50.0 to 10.0) | 5.30 to 6.00 | ≥ 100 |  |  |
| CC1=C(c2nc(-c3ccc(C#N)cc3)cs2)C(c2cccs2)NC(=O)N1 (centres unmarked) [Example 14] | C (C < 50.0 to 10.0) | 4.00 to 5.30 | ≥ 100 |  |  |
| CC1=C(c2nc(-c3ccc(C#N)cc3)cs2)C(c2ccc([N+](=O)[O-])cc2)NC(=O)N1 (centres unmarked) [Example 55] | C (C < 50.0 to 10.0) | 4.00 to 5.30 | ≥ 100 |  |  |
| COc1ccc(-c2csc(C3=C(C)NC(=O)NC3c3cccc(O)c3)n2)cc1 (centres unmarked) [Example 46] | D (D < 10.0) | 4.00 to 5.30 | ≥ 100 |  |  |
| CC1=C(c2nc(-c3ccc(C#N)cc3)cs2)C(c2cncc(F)c2)NC(=O)N1 (centres unmarked) [Example 20] | A (A = TI (TC50/IC50) ≧ 100.0) | > 6.00 | ≥ 100 |  |  |
| CC1=C(c2nc(-c3ccc(C#N)cc3)cs2)C(c2ccccn2)NC(=O)N1 (centres unmarked) [Example 7] | C (C < 50.0 to 10.0) | 5.30 to 6.00 | ≥ 100 |  |  |
| COc1ccc(-c2csc(C3=C(C)NC(=O)NC3c3cccc(C(F)(F)F)c3)n2)cc1 (centres unmarked) [Example 45] | D (D < 10.0) | < 4.00 | ≥ 100 |  |  |
| CC1=C(c2nc(-c3ccc(C#N)cc3)cs2)C(c2ccncc2)NC(=O)N1 (centres unmarked) [Example 9] | C (C < 50.0 to 10.0) | 5.30 to 6.00 | ≥ 100 |  |  |
| COc1ncc(C2NC(=O)NC(C)=C2c2nc(-c3ccc(C#N)cc3)cs2)c(OC)n1 (centres unmarked) [Example 32] | D (D < 10.0) | 4.00 to 5.30 | ≥ 100 |  |  |
| CC1=C(c2nc(-c3ccc(C#N)cc3)cs2)C(c2ccc(N(C)C)cc2)NC(=O)N1 (centres unmarked) [Example 54] | C (C < 50.0 to 10.0) | 4.00 to 5.30 | 50 to 100 |  |  |

| Molecule | TI (TC50/IC50) (HIV-1Ba-L [1]) | pIC50 (HIV-1Ba-L [1]; Human immunodeficiency virus 1) | CC50 at 48 h [2] [µM] | pIC50 (HIV-1Ba-L [1]) | pIC50 (HIV-1Ba-L [3]) |
| --- | --- | --- | --- | --- | --- |
| CC1=C(c2nc(-c3ccc(C#N)cc3)cs2)C(c2cccc(Cl)c2)NC(=O)N1 (centres unmarked) [Example 51] | C (C < 50.0 to 10.0) | 4.00 to 5.30 | ≥ 100 |  |  |
| CC1=C(c2nc(-c3ccc(C(F)(F)F)cc3)cs2)C(c2cccc(O)c2)NC(=O)N1 (centres unmarked) [Example 75] | D (D < 10.0) | 4.00 to 5.30 | < 50 |  |  |
| CC1=C(c2nc(-c3ccc(C#N)cc3)cs2)C(c2ccc(F)c([N+](=O)[O-])c2)NC(=O)N1 (centres unmarked) [Example 60] | C (C < 50.0 to 10.0) | 4.00 to 5.30 | ≥ 100 |  |  |
| CC1=C(c2nc(-c3ccc(C#N)cc3)cs2)C(Cc2ccccc2)NC(=O)N1 (centres unmarked) [Example 88] | C (C < 50.0 to 10.0) | 5.30 to 6.00 | ≥ 100 |  |  |
| CC1=C(c2nc(-c3ccc(C#N)cc3)cs2)C(c2ccnc(Cl)c2)NC(=O)N1 (centres unmarked) [Example 24] | C (C < 50.0 to 10.0) | 4.00 to 5.30 | ≥ 100 |  |  |
| COc1ccc(-c2csc(C3=C(C)NC(=O)NC3c3ccc(Cl)nc3)n2)cc1 (centres unmarked) [Example 41] | D (D < 10.0) | 4.00 to 5.30 | 50 to 100 |  |  |
| CC1=C(c2nc(-c3ccc(C#N)cc3)cs2)C(c2ccc(O)c(O)c2)NC(=O)N1 (centres unmarked) [Example 79] | A (A = TI (TC50/IC50) ≧ 100.0) | > 6.00 | ≥ 100 |  |  |
| CC1=C(c2nc(-c3ccc(C#N)cc3)cs2)C(c2cc(=O)[nH]c(=O)[nH]2)NC(=O)N1 (centres unmarked) [Example 22] | D (D < 10.0) | < 4.00 | ≥ 100 |  |  |
| CC1=C(c2nc(-c3ccc(C#N)cc3)cs2)C(c2cccc(OC(F)(F)F)c2)NC(=O)N1 (centres unmarked) [Example 62] | D (D < 10.0) | 4.00 to 5.30 | ≥ 100 |  |  |
| CC1=C(c2nc(-c3ccc(C#N)cc3)cs2)C(c2cc(F)cc(F)c2)NC(=O)N1 (centres unmarked) [Example 53] | C (C < 50.0 to 10.0) | 5.30 to 6.00 | ≥ 100 |  |  |
| CC1=C(c2nc(-c3ccc(C#N)cc3)cs2)C(c2cc(C(F)(F)F)cc(C(F)(F)F)c2)NC(=O)N1 (centres unmarked) [Example 77] | D (D < 10.0) | < 4.00 | ≥ 100 |  |  |
| CC1=C(c2nc(-c3ccc(F)cc3)cs2)C(Cc2ccc(C)cc2)NC(=O)N1 (centres unmarked) [Example 95] | D (D < 10.0) | < 4.00 | ≥ 100 |  |  |
| CC1=C(c2nc(-c3ccc(C#N)cc3)cs2)C(c2cc(O)ccc2O)NC(=O)N1 (centres unmarked) [Example 78] | D (D < 10.0) | 4.00 to 5.30 | ≥ 100 |  |  |
| COc1cccc(C2NC(=O)NC(C)=C2c2nc(-c3ccc(C#N)cc3)cs2)c1 (centres unmarked) [Example 65] | C (C < 50.0 to 10.0) | 5.30 to 6.00 | ≥ 100 |  |  |
| CC1=C(c2nc(-c3ccc(C#N)cc3C)cs2)C(c2ccc(Br)nc2)NC(=O)N1 (centres unmarked) [Example 84] | B (B < 100.0-50.0) | > 6.00 | < 50 |  |  |
| COc1ccc(-c2csc(C3=C(C)NC(=O)NC3c3ccccc3)n2)cc1 (centres unmarked) [Example 39] | D (D < 10.0) | 4.00 to 5.30 | ≥ 100 |  |  |
| CC1=C(c2nc(-c3ccc(C#N)cc3)cs2)C(Cc2ccc(C)cc2)NC(=O)N1 (centres unmarked) [Example 94] | C (C < 50.0 to 10.0) | 5.30 to 6.00 | 50 to 100 |  |  |
| CC1=C(c2nc(-c3cccs3)cs2)C(c2cccc(O)c2)NC(=O)N1 (centres unmarked) [Example 37] | D (D < 10.0) | 4.00 to 5.30 | ≥ 100 |  |  |
